Twelve molecules from US4994270A, “A54145 antibiotics and process for their production” (Eli Lilly and Company, priority 1988, dated 1991) can be followed below.

Positions of bridges follow the written chain, without caps; N, C: chain ends. Non-standard residues stand in square brackets, D forms with d. Residues, ends and D or L forms follow the SMILES beside them. *: point of attachment. Ileψ(thiazoline)Cys = CC[C@H](C)[C@H](N)C1=N[C@H](C(=O)*)CS1; dOrn = NCCC[C@@H](N)C(=O)O

The test system of this experiment is Streptomyces fradiae A54145.1, A54145.2 and A54145.3. Nature of the experiment: Resistance to antibiotics, sensitivity discs on seeded ISP No. 2 agar plates. As to conditions: identical for A54145.1, A54145.2, A54145.3; lincomycin 2 μg, penicillin G 10 units, bacitracin 10 units, cephalothin 30 μg, gentamicin 10 μg, neomycin 30 μg, oleandomycin 15 μg, rifampin 5 μg, streptomycin 10 μg, tetracycline 30 μg, tobramycin 10 μg, vancomycin 30 μg.
Description: Resistance to antibiotics was measured by padding antibiotic sensitivity discs onto the surface of seeded ISP No. 2 agar plates.
Regarding `CC[C@H](C)[C@H](N)C1=N[C@H](C(=O)N[C@@H](CC(C)C)C(=O)N[C@H](CCC(=O)O)C(=O)N[C@H](C(=O)N[C@H]2CCCCNC(=O)[C@H](CC(N)=O)NC(=O)[C@@H](CC(=O)O)NC(=O)[C@H](Cc3cnc[nH]3)NC(=O)[C@@H](Cc3ccccc3)NC(=O)[C@H]([C@@H](C)CC)NC(=O)[C@@H](CCCN)NC2=O)[C@@H](C)CC)CS1` [bacitracin] ({Ileψ(thiazoline)Cys}-L[dE]IK[dOrn]I[dF]H[dD]N; lactam 4-C), the “resistance or sensitivity of the strains to antibiotic discs” value (from here on “resistance or sensitivity of the strains”) is recorded as “sensitive”.

Regarding `CC(=O)OCC1=C(C(=O)O)N2C(=O)[C@@H](NC(=O)Cc3cccs3)[C@H]2SC1` [cephalothin], the “resistance or sensitivity of the strains” value is given as “sensitive”.

As to `CCC[C@@H]1C[C@@H](C(=O)N[C@@H]([C@H]2O[C@H](SC)[C@H](O)[C@@H](O)[C@H]2O)[C@@H](C)O)N(C)C1` [lincomycin], the “resistance or sensitivity of the strains” value is on record as “resistant”.

Consider `CO[C@H]1C[C@H](O[C@H]2[C@H](C)[C@@H](O[C@@H]3O[C@H](C)C[C@H](N(C)C)[C@H]3O)[C@@H](C)C[C@@]3(CO3)C(=O)[C@H](C)[C@@H](O)[C@@H](C)[C@@H](C)OC(=O)[C@@H]2C)O[C@@H](C)[C@@H]1O` [oleandomycin], for which the “resistance or sensitivity of the strains” value is given as “sensitive”.

As to `CC1(C)S[C@@H]2[C@H](NC(=O)Cc3ccccc3)C(=O)N2[C@H]1C(=O)O` [penicillin G], the “resistance or sensitivity of the strains” value was “resistant”.

With `CO[C@H]1/C=C/O[C@@]2(C)Oc3c(C)c(O)c4c(O)c(c(/C=N/N5CCN(C)CC5)c(O)c4c3C2=O)NC(=O)/C(C)=C\C=C\[C@H](C)[C@H](O)[C@@H](C)[C@@H](O)[C@@H](C)[C@H](OC(C)=O)[C@@H]1C` [rifampin], the “resistance or sensitivity of the strains” value was “sensitive”.

`[H]/N=C(/N)N[C@H]1[C@H](O)[C@@H](O)[C@H](O[C@@H]2O[C@@H](C)[C@](O)(C=O)[C@H]2O[C@@H]2O[C@@H](CO)[C@H](O)[C@@H](O)[C@@H]2NC)[C@@H](N/C(N)=N\[H])[C@@H]1O` [streptomycin]: the “resistance or sensitivity of the strains” value is listed as “sensitive”.

For `CN(C)[C@@H]1C(O)=C(C(N)=O)C(=O)[C@@]2(O)C(O)=C3C(=O)c4c(O)cccc4[C@@](C)(O)[C@H]3C[C@@H]12` [tetracycline], the “resistance or sensitivity of the strains” value was “sensitive”.

Regarding `NC[C@H]1O[C@H](O[C@H]2[C@H](O)[C@@H](O[C@H]3O[C@H](CO)[C@@H](O)[C@H](N)[C@H]3O)[C@H](N)C[C@@H]2N)[C@H](N)C[C@@H]1O` [tobramycin], the “resistance or sensitivity of the strains” value is “sensitive”.

As for `CN[C@H](CC(C)C)C(=O)N[C@H]1C(=O)N[C@@H](CC(N)=O)C(=O)N[C@H]2C(=O)N[C@H]3C(=O)N[C@H](C(=O)N[C@H](C(=O)O)c4cc(O)cc(O)c4-c4cc3ccc4O)[C@H](O)c3ccc(c(Cl)c3)Oc3cc2cc(c3O[C@@H]2O[C@H](CO)[C@@H](O)[C@H](O)[C@H]2O[C@H]2C[C@](C)(N)[C@H](O)[C@H](C)O2)Oc2ccc(cc2Cl)[C@H]1O` [vancomycin], the “resistance or sensitivity of the strains” value is “sensitive”.

Take gentamicin: the “resistance or sensitivity of the strains” value is given as “sensitive”.

Turning to neomycin, the “resistance or sensitivity of the strains” value was “sensitive”.
